Converted amounts (≈) assume the structure as drawn.
Assays:
[1] = Assessment of solubility (McIlvaine buffers, 24 h shake, UPLC-UV); format: physicochemical; conditions: kinetic from dmso stock
Method in brief: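 Compounds from 10 mM DMSO stocks were shaken for 24 h at room temperature in McIlvaine buffers at pH 2.2, 4.5 and 6.8 (2.5% v/v DMSO final), then filtered. Filtrates were quantified by UPLC-UV at 254 nm against a 50:50 acetonitrile/water reference assumed fully dissolved, as a single determination.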

[2] = human liver microsome (HLM) metabolic stability assay; format: in vitro ADME; conditions: human liver microsomes; % hepatic blood flow calculated from t1/2
Method in brief: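 Compounds at 1 uM incubated with human liver microsomes plus NADPH at 37° C., sampled at 0, 5, 15, 30 and 60 min into cold acetonitrile and quantified by LC/MS/MS. t½ from the slope of ln % remaining vs time; CLint, CLh and % Qh derived from it (n=1).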

Structure (SMILES)	solubility at 24 h ([1]; pH 2.2, aqueous buffer) [µg/mL]	solubility at 24 h ([1]; pH 4.5, aqueous buffer) [µg/mL]	solubility at 24 h ([1]; pH 6.8, aqueous buffer) [µg/mL]	HLM (% Qh) [2] [% Qh]
CCOc1c(C(=O)O)cnn1-c1cccc(-c2cccc(C)c2OCc2cc(C)c3c(c2)CN(C2CCOCC2)C3)n1 [Compound 118]	110 (≈ 193 µM)	84 (≈ 148 µM)	92 (≈ 162 µM)	<24
CCOc1c(C(=O)O)cnn1-c1cccc(-c2cccc(C)c2OCc2ccc3c(c2C)CCN(CC2CCCOC2)C3)n1 (centres unmarked) [Compound 146]	100 (≈ 168 µM)	88 (≈ 147 µM)	79 (≈ 132 µM)	<24
Cc1cccc(-c2cccc(-n3ncc(C(=O)O)c3OC(C)C)n2)c1OCc1ccc2c(c1)CCN([C@H]1CCOC1)C2 [Compound 111]	87 (≈ 153 µM)	69 (≈ 121 µM)	75 (≈ 132 µM)	<24
COc1c(C(=O)O)cnn1-c1cccc(-c2cccc(C)c2OCc2ccc3c(c2F)CCN(C2COC2)C3)n1 [Compound 177]	110 (≈ 202 µM)	58 (≈ 107 µM)	86 (≈ 158 µM)	<24
Cc1cccc(-c2cccc(-n3ncc(C(=O)O)c3OC(C)C)n2)c1OCc1ccc2c(c1C)CCN([C@H]1CCCOC1)C2 [Compound 117]	102 (≈ 171 µM)	82 (≈ 137 µM)	85 (≈ 142 µM)	25
CC[C@H](C)Oc1c(C(=O)O)cnn1-c1cccc(-c2cccc(C)c2OCc2ccc3c(c2C)CCN(C2CCOC2)C3)n1 (some centres unmarked) [Compound 137]	110 (≈ 184 µM)	98 (≈ 164 µM)	110 (≈ 184 µM)	<24
CCOc1c(C(=O)O)cnn1-c1cccc(-c2cccc(C)c2OCc2cc3c(c(C(F)(F)F)c2)CN(C2CCOCC2)CC3)n1 [Compound 157]	94 (≈ 148 µM)	70 (≈ 110 µM)	62 (≈ 97.4 µM)	31
CCOc1c(C(=O)O)cnn1-c1cccc(-c2cccc(C)c2OCc2ccc3c(c2C)CCN([C@H]2CCCOC2)C3)n1 [Compound 129]	95 (≈ 163 µM)	79 (≈ 136 µM)	79 (≈ 136 µM)	<24
COc1c(C(=O)O)cnn1-c1cccc(-c2cccc(C)c2OCc2cc(C)c3c(c2C)CCN(C2COC2)C3)n1 [Compound 178]	100 (≈ 180 µM)	72 (≈ 130 µM)	86 (≈ 155 µM)	<24
COc1c(C(=O)O)cnn1-c1cccc(-c2cccc(C)c2OCc2cc3c(c(C(F)(F)F)c2)CN(C2CCOCC2)CC3)n1 [Compound 158]	64 (≈ 103 µM)	43 (≈ 69.1 µM)	41 (≈ 65.8 µM)	<24
CCOc1c(C(=O)O)cnn1-c1cccc(-c2cccc(C)c2OCc2ccc3c(c2C)CCN(C[C@H]2COCCO2)C3)n1 [Compound 170]	120 (≈ 200 µM)	96 (≈ 160 µM)	95 (≈ 159 µM)	<24
CCOc1c(C(=O)O)cnn1-c1cccc(-c2cccc(C)c2OCc2ccc3c(c2)CCN(CC2CC(=O)N(C)C2)C3)n1 (centres unmarked) [Compound 97, 5-ethoxy-1-(6-{3-methyl-2-[2-(1-methyl-5-oxo-pyrrolidin-3-ylmethyl)-1,2,3,4-tetrahydro-isoquinolin-6-ylmethoxy]-phenyl}-pyridin-2-yl)-1H-pyrazole-4-carboxylic acid]	91 (≈ 153 µM)	72 (≈ 121 µM)	77 (≈ 129 µM)	<24
CCOc1c(C(=O)O)cnn1-c1cccc(-c2cccc(C)c2OCc2ccc3c(c2F)CCN(C2CCOCC2)C3)n1 [Compound 159]	86 (≈ 147 µM)	55 (≈ 93.8 µM)	51 (≈ 86.9 µM)	<24
COc1c(C(=O)O)cnn1-c1cccc(-c2cccc(C)c2OCc2ccc3c(c2)C(C)(C)CN(C2COC2)C3)n1 [Compound 10]	94 (≈ 169 µM)	50 (≈ 90.1 µM)	73 (≈ 132 µM)	30
CCOc1c(C(=O)O)cnn1-c1cccc(-c2cccc(C)c2OCc2ccc3c(c2CC)CCN(C2CCOCC2)C3)n1 [Compound 154]	85 (≈ 142 µM)	36 (≈ 60.3 µM)	57 (≈ 95.5 µM)	<24
COc1c(C(=O)O)cnn1-c1cccc(-c2cccc(Cl)c2OCc2ccc3c(c2)CCN(C2COC2)C3)n1 [Compound 7]	110 (≈ 201 µM)	77 (≈ 141 µM)	91 (≈ 166 µM)	<24
COc1c(C(=O)O)cnn1-c1cccc(-c2cccc(C(F)(F)F)c2OCc2ccc3c(c2)CCN(C2COC2)C3)n1 [Compound 9]	94 (≈ 162 µM)	70 (≈ 121 µM)	82 (≈ 141 µM)	<24

Results, then the compound that gave them:

solubility at 24 h ([1]; pH 2.2, aqueous buffer) [µg/mL]	solubility at 24 h ([1]; pH 4.5, aqueous buffer) [µg/mL]	solubility at 24 h ([1]; pH 6.8, aqueous buffer) [µg/mL]	HLM (% Qh) [2] [% Qh]	Structure (SMILES)
160 (≈ 288 µM)	150 (≈ 270 µM)	160 (≈ 288 µM)	<24	COc1c(C(=O)O)cnn1-c1cccc(-c2cccc(C)c2OCc2cc3c(cc2C)CN(C2CCOCC2)C3)n1 [Compound 143]
110 (≈ 180 µM)	94 (≈ 154 µM)	100 (≈ 164 µM)	32	Cc1cccc(-c2cccc(-n3ncc(C(=O)O)c3OCC(C)C)n2)c1OCc1ccc2c(c1C)CCN(C1CCOCC1)C2 [Compound 134]
120 (≈ 201 µM)	99 (≈ 166 µM)	100 (≈ 168 µM)	<24	CCCOc1c(C(=O)O)cnn1-c1cccc(-c2cccc(C)c2OCc2ccc3c(c2C)CCN(C2CCOCC2)C3)n1 [Compound 133]
150 (≈ 264 µM)	120 (≈ 211 µM)	110 (≈ 193 µM)	<24	COc1c(C(=O)O)cnn1-c1cccc(-c2ccc(C)cc2OCc2ccc3c(c2C)CCN(C2CCOCC2)C3)n1 [Compound 99]
110 (≈ 177 µM)	51 (≈ 81.9 µM)	64 (≈ 103 µM)	27	COc1c(C(=O)O)cnn1-c1cccc(-c2cccc(C)c2OCc2ccc3c(c2C(F)(F)F)CCN(C2CCOCC2)C3)n1 [Compound 166]
100 (≈ 180 µM)	77 (≈ 139 µM)	43 (≈ 77.5 µM)	28	COc1c(C(=O)O)cnn1-c1cccc(-c2cccc(C)c2OCc2ccc3c(c2C)CCN(C2COC2)CC3)n1 [Compound 176]
93 (≈ 168 µM)	72 (≈ 130 µM)	75 (≈ 135 µM)	<24	COc1c(C(=O)O)cnn1-c1cccc(-c2cccc(C)c2OCc2ccc3c(c2C)CCN([C@H]2CCOC2)C3)n1 [Compound 105]
120 (≈ 205 µM)	87 (≈ 149 µM)	93 (≈ 159 µM)	<24	COc1c(C(=O)O)cnn1-c1cccc(-c2cccc(C)c2OCc2ccc3c(c2C)CCN(C[C@H]2COCCO2)C3)n1 [Compound 142]
2.1 (≈ 3.6 µM)	5.9 (≈ 10.1 µM)	83 (≈ 142 µM)	<24	COc1c(C(=O)O)cnn1-c1cccc(-c2cccc(C)c2OCc2ccc3c(c2C)CCN(C2CCOCC2)C3=O)n1 [Compound 167, 5-Methoxy-1-(6-{3-methyl-2-[5-methyl-1-oxo-2-(tetrahydro-pyran-4-yl)-1,2,3,4-tetrahydro-isoquinolin-6-ylmethoxy]-phenyl}-pyridin-2-yl)-1H-pyrazole-4-carboxylic acid]
110 (≈ 193 µM)	76 (≈ 134 µM)	78 (≈ 137 µM)	<24	CCOc1c(C(=O)O)cnn1-c1cccc(-c2cccc(C)c2OCc2ccc3c(c2C)CCN([C@H]2CCOC2)C3)n1 [Compound 125]
110 (≈ 193 µM)	89 (≈ 157 µM)	97 (≈ 171 µM)	<24	CCOc1c(C(=O)O)cnn1-c1cccc(-c2cccc(C)c2OCc2ccc3c(c2C)CN(C2CCOCC2)C3)n1 [Compound 119]
100 (≈ 168 µM)	83 (≈ 139 µM)	82 (≈ 137 µM)	26	CCOc1c(C(=O)O)cnn1-c1cccc(-c2cccc(C)c2OCc2ccc3c(c2C)CCN(C2CCOCC2)CC3)n1 [Compound 162]

Reference: patent US8906904B2, “Alkoxy pyrazoles as soluble guanylate cyclase activators” (Boehringer Ingelheim International GmbH, priority 2012, dated 2014)
